# System: sugarcane
# Test: Field trials in 1.5 year plant cane: phytotoxicity (% damage) to sugarcane
# Assay type: in vivo
# Conditions: 200 g/ha
# Description: Five field trials are carried out in 1.5 year plant cane to examine the effect on sugarcane of combinations of compound of Formula I with various PS-II inhibiting herbicides. Plot sizes are 20 m^2 and results shown are the average of 3 replicate treatments.
smiles,measurement,value
COCCOCc1nc(C(F)(F)F)ccc1C(=O)C1=C(O)C2CCC(C2)C1=O (stereo not shown) [Formula I],% Damage (Average of three trials).,8%

# Source: patent publication US20110190126A1, “WEED CONTROL METHOD AND HERBICIDAL COMPOSITION” (SYNGENTA CROP PROTECTION, INC., priority 2008, published 2011)
